How the values were obtained:
[1] = Binding affinity to wild type Angiococcus disciformis PKS/NRPS expressed in Escherichia coli BL21 (DE3) by isothermal titration calorimetry
[2] = Binding affinity to wild type Angiococcus disciformis PKS/NRPS expressed in Escherichia coli BL21 (DE3) by surface plasmon resonance assay
[3] = Binding affinity to wild type Angiococcus disciformis PKS/NRPS R20A mutant expressed in Escherichia coli BL21 (DE3) by surface plasmon resonance assay
[4] = Binding affinity to wild type Angiococcus disciformis PKS/NRPS R27A mutant expressed in Escherichia coli BL21 (DE3) by surface plasmon resonance assay
[5] = Binding affinity to wild type Angiococcus disciformis PKS/NRPS R29A mutant expressed in Escherichia coli BL21 (DE3) by surface plasmon resonance assay
[6] = Binding affinity to wild type Angiococcus disciformis PKS/NRPS R20A/R27A mutant expressed in Escherichia coli BL21 (DE3) by surface plasmon resonance assay
[7] = Binding affinity to wild type Angiococcus disciformis PKS/NRPS R20A/R29A mutant expressed in Escherichia coli BL21 (DE3) by surface plasmon resonance assay
[8] = Binding affinity to wild type Angiococcus disciformis PKS/NRPS R27A/R29A mutant expressed in Escherichia coli BL21 (DE3) by surface plasmon resonance assay

SMILES: CCCC(=O)OCN(C(=O)[C@@H](NC(=O)[C@H]1CCCCN1C)[C@@H](C)CC)[C@H](C[C@@H](OC(C)=O)c1nc(C(=O)N[C@@H](Cc2ccc(O)cc2)C[C@H](C)C(=O)O)cs1)C(C)C [TUBULYSIN B]
- Kd [1]: 47 µM
- Kd [2]: 46 µM
- Kd [3]: 59 µM
- Kd [4]: 121 µM
- Kd [5]: 453 µM
- Kd [6]: 114 µM
- Kd [7]: 596 µM
- Kd [8]: 282 µM

Source: ChEMBL document CHEMBL1212696, “Multienzyme docking in hybrid megasynthetases” (Nat Chem Biol, 2008)
